Measurements published in patent US20160257697A1, “THIOPHENE-SUBSTITUTED TETRACYCLIC COMPOUNDS AND METHODS OFUSE THEREOF FOR THE TREATMENT OF VIRAL DISEASES” (priority 2013, published 2016).
pIC50: −log10 of the molar value. Where two headings read alike, the source gives them in different places.

How the values were obtained:
Assay in all cases: microbe, parasite or virus in culture
Type in all cases: cell-based, Hepatitis C virus (HCV)
[1] = system: HCV replicon 1A; conditions: Replicon Assay A
Experimental: (§1) To measure cell-based anti-HCV activity of compounds of the present invention, two complimentary assays were employed using various replicons. In the first assay (“Replicon Assay A”), replicon cells were seeded at 2000 cells/well in 384-well 384-well flat bottom tissue culture treated clear bottom plate (Corning 3707) in the presence of the test compound. […] The final concentration of DMSO was 0.5%. Fetal bovine serum was 5%, in the assay media. Cells were harvested on day 3 by removing media and washing the cells with a suitable wash buffer. The cells are lysed with the addition of 1× Qiagen lysis buffer (Cat #1062731). The replicon RNA level was measured using real time PCR (TaqMan® EZ RT-PCR, Applied Biosystems 403028) with the following primers and probes: […]
(§2) Cyclophilin RNA was used as endogenous control and was amplified in the same reaction as NS5B (multiplex PCR). The real-time RT-PCR reactions were run on ABI PRISM 7900HT Sequence Detection System using the following program: 50° C. for 2 minutes, 60° C. for 30 minutes, 95° C. for 5 minutes, 40 cycles of 94° C. for 20 sec, 55° C. for 1 minutes.
(§3) The amount of HCV replicon RNA per cell is quantified using a linear regression curve for a known nanogram (ng) amount of HCV replicon total RNA. This is established by plotting the Cycle Threshold values (Ct) from the Neo probe and primer set versus the log (ng) for each HCV replicon total RNA standard. The amount of HCV RNA for each replicon sample is calculated by taking the sample's Ct value, minus the line intercept, divided by the slope of the line. Similarly, the amount of Cyclophilin mRNA per cell is also quantified using a linear regression curve for a known nanogram (ng) amount of HCV replicon total RNA. Again, this is established by plotting the Cycle Threshold values (Ct) from the Cyclophilin probe and primer set versus the log (ng) for each HCV replicon total RNA standard.
(§4) Data for replicons 1A, 1AY93H and 2B were obtained using Replicon Assay A and data for replicons 1AQ30D and 1B were obtained using Replicon Assay B.

[2] = system: HCV replicon 1AY93H; conditions: Replicon Assay A
Experimental: as §1, §2, §3, §4

[3] = system: HCV replicon 2B; conditions: Replicon Assay A; for pIC50: read-out: 2B IC50
Experimental: as §1, §2, §3, §4

[4] = read-out: 1A Y93H IC50, replicon 1AY93H
[5] = read-out: 1A Y93H IC50, HCV replicon 1A Y93H
[6] = Hepatitis C virus, HCV replicon 1A

SMILES | pIC50 ([1]; replicon 1A) | pIC50 [2, 4] | further results
CCc1ccc(C2Oc3cc(-c4cnc([C@@H]5CCCN5C(=O)[C@@H](NC(=O)OC)C(C)C)[nH]4)cc(F)c3-c3cc4cc(-c5cnc([C@@H]6C[C@@H](F)CN6C(=O)C(NC(=O)OC)C6CCOC(C)(C)C6)[nH]5)ccc4n32)s1 (single isomer, unassigned) [Compound 256] | 9.93 | 7.77 | 
COC(=O)N[C@H](C(=O)N1CCC[C@H]1c1ncc(-c2cc(F)c3c(c2)OC(c2ccc(CC(C)(C)OC)s2)n2c-3cc3cc(-c4cnc([C@@H]5CCCN5C(=O)[C@@H](NC(=O)OC)C(C)C)[nH]4)ccc32)[nH]1)C(C)C (single isomer, unassigned) [Compound 843] |  |  | pIC50 ([1]; HCV replicon 1A): 11.66; pIC50 ([2]; HCV replicon 1A Y93H, read-out: 1A Y93H IC50): 9.48
COC(=O)NC(C(=O)N1CCC[C@H]1c1ncc(-c2cc(F)c3c(c2)OC(c2ccc(C4CC4)s2)n2c-3cc3cc(-c4cnc([C@@H]5C[C@H]6C[C@H]6N5C(=O)[C@@H](NC(=O)OC)C(C)C)[nH]4)ccc32)[nH]1)C(C)(C)F (single isomer, unassigned) [Compound 100] | 10.62 | 8.08 | 
COC(=O)NC(C(=O)N1CCC[C@H]1c1ncc(-c2cc(F)c3c(c2)OC(c2ccc(C4CC4)s2)n2c-3cc3cc(-c4cnc([C@@H]5CCCN5C(=O)[C@@H](NC(=O)OC)C(C)C)[nH]4)ccc32)[nH]1)C1C[C@@H](C)O[C@@H](C)C1 (single isomer, unassigned) [Compound 187] | 10.18 | 7.83 | 
COC(=O)NC(C(=O)N1[C@@H]2C[C@@H]2C[C@H]1c1ncc(-c2ccc3c(c2)cc2n3C(c3cc4c(s3)CCC4)Oc3cc(-c4cnc([C@@H]5CCCN5C(=O)[C@@H](NC(=O)OC)C(C)C)[nH]4)cc(F)c3-2)[nH]1)C(C)C (single isomer, unassigned) [Compound 660] |  |  | pIC50 ([1]; HCV replicon 1A): 11.47; pIC50 [2, 5]: 8.98
COC(=O)NC(C(=O)N1CCC[C@H]1c1ncc(-c2ccc3c(c2)cc2n3C(c3ccc(C4CC4)s3)Oc3cc(-c4cnc([C@@H]5C[C@@H](F)CN5C(=O)[C@@H](NC(=O)OC)C(C)C)[nH]4)cc(F)c3-2)[nH]1)C(C)(C)F (single isomer, unassigned) [Compound 113] | 10.37 | 8.41 | 
COC(=O)NC(C(=O)N1[C@@H]2C[C@@H]2C[C@H]1c1ncc(-c2ccc3c(c2)cc2n3C(c3ccc(C4CC4)s3)Oc3cc(-c4cnc([C@@H]5CCCN5C(=O)[C@@H](NC(=O)OC)C(C)C)[nH]4)cc(F)c3-2)[nH]1)C1C[C@@H](C)O[C@@H](C)C1 (single isomer, unassigned) [Compound 274] | 10.66 | 8.10 | 
COC(=O)N[C@H](C(=O)N1CCC[C@H]1c1ncc(-c2cc(F)c3c(c2)OC(c2cc4ccccc4s2)n2c-3cc3cc(-c4cnc([C@@H]5C[C@H]6C[C@H]6N5C(=O)[C@@H](NC(=O)OC)C(C)C)[nH]4)ccc32)[nH]1)C(C)C (single isomer, unassigned) [Compound 614] |  |  | pIC50 [1, 6]: 11.82; pIC50 [2, 5]: 8.66
COC(=O)NC(C(=O)N1CCC[C@H]1c1ncc(-c2cc(F)c3c(c2)OC(c2ccc(C4CC4)s2)n2c-3cc3cc(-c4cnc([C@@H]5CCCN5C(=O)C(NC(=O)OC)C5C[C@@H](C)O[C@@H](C)C5)[nH]4)ccc32)[nH]1)C1C[C@@H](C)O[C@@H](C)C1 (single isomer, unassigned) [Compound 304] | 10.34 | 7.77 | 
COC(=O)NC(C(=O)N1CCC[C@H]1c1ncc(-c2ccc3c(c2)cc2n3C(c3ccc(C4CC4)s3)Oc3cc(-c4cnc([C@@H]5CCCN5C(=O)[C@@H](NC(=O)OC)C(C)C)[nH]4)cc(F)c3-2)[nH]1)C1CCOC(C)(C)C1 (single isomer, unassigned) [Compound 224] | 10.32 | 8.05 | 
COC(=O)NC(C(=O)N1CCC[C@H]1c1ncc(-c2ccc3c(c2)cc2n3C(c3ccc(C(F)F)s3)Oc3cc(-c4cnc([C@@H]5CCCN5C(=O)[C@@H](NC(=O)OC)C(C)C)[nH]4)cc(F)c3-2)[nH]1)C1C[C@@H](C)O[C@@H](C)C1 (single isomer, unassigned) [Compound 265] |  | 9.80 | pIC50 ([3]; replicon 2B): 9.60
COC(=O)N[C@H](C(=O)C1CCC[C@H]1c1ncc(-c2ccc3c(c2)cc2n3C(c3ccc(C(F)(F)F)s3)Oc3cc(-c4cnc([C@@H]5CCCN5C(=O)[C@@H](NC(=O)OC)C(C)C)[nH]4)cc(F)c3-2)[nH]1)C(C)C (single isomer, unassigned) [Compound 90] |  | 9.13 | pIC50 ([3]; replicon 2B): 8.72
COC(=O)N[C@H](C(=O)N1C[C@H](F)C[C@@H]1c1ncc(-c2ccc3c(c2)OC(c2cc4ccccc4s2)n2c-3cc3cc(-c4ncc([C@@H]5C[C@@H](F)CN5C(=O)[C@@H](NC(=O)OC)C5CCOCC5)[nH]4)ccc32)[nH]1)C1CCOCC1 (mixture of isomers) [Compound 814] |  |  | pIC50 [1, 6]: 10.00; pIC50 ([2]; Hepatitis C virus, read-out: 1A Y93H IC50, HCV replicon 1A Y93H): 10.26
COC(=O)N[C@H](C(=O)N1CCC[C@H]1c1ncc(-c2ccc3c(c2)OC(c2ccc(C4CC4)s2)n2c-3c(F)c3cc(-c4cnc([C@@H]5CCCN5C(=O)[C@@H](NC(=O)OC)C(C)C)[nH]4)ccc32)[nH]1)C(C)C (single isomer, unassigned) [Compound 605] |  |  | pIC50 ([1]; HCV replicon 1A): 11.77; pIC50 [2, 5]: 8.90
COC(=O)N[C@H](C(=O)N1CCC[C@H]1c1ncc(-c2cc(F)c3c(c2)OC(c2csc(C4CC4)c2)n2c-3cc3cc(-c4cnc([C@@H]5CCCN5C(=O)[C@@H](NC(=O)OC)C(C)C)[nH]4)ccc32)[nH]1)C(C)C (single isomer, unassigned) [Compound 321] |  | 8.24 | pIC50 ([1]; Hepatitis C virus, replicon 1A): 11.89
CCc1ccc(C2Oc3cc(-c4cnc([C@@H]5CCCN5C(=O)[C@@H](NC(=O)OC)C(C)C)[nH]4)cc(F)c3-c3cc4cc(-c5cnc([C@@H]6C[C@H]7C[C@H]7N6C(=O)C(NC(=O)OC)C6CCOC(C)(C)C6)[nH]5)ccc4n32)s1 (single isomer, unassigned) [Compound 198] | 10.11 | 7.84 | 
COC(=O)NC(C(=O)N1[C@@H]2C[C@@H]2C[C@H]1c1ncc(-c2ccc3c(c2)cc2n3C(c3ccc(C4CC4)s3)Oc3cc(-c4cnc([C@@H]5CCCN5C(=O)[C@@H](NC(=O)OC)C(C)C)[nH]4)cc(F)c3-2)[nH]1)C1CCOC(C)(C)C1 (single isomer, unassigned) [Compound 277] |  | 9.89 | pIC50 ([3]; replicon 2B): 9.24
CCc1ccc(C2Oc3cc(-c4cnc([C@@H]5CCCN5C(=O)[C@@H](NC(=O)OC)C(C)C)[nH]4)cc(F)c3-c3cc4cc(-c5cnc([C@@H]6C[C@@H](F)CN6C(=O)C(NC(=O)OC)C6CCOC(C)(C)C6)[nH]5)ccc4n32)s1 (single isomer, unassigned) [Compound 257] | 10.03 | 8.03 | 
COC(=O)N[C@H](C(=O)N1CCC[C@H]1c1ncc(-c2cc(F)c3c(c2)OC(c2ccc(CCC4CC4)s2)n2c-3cc3cc(-c4cnc([C@@H]5CCCN5C(=O)[C@@H](NC(=O)OC)C(C)C)[nH]4)ccc32)[nH]1)C(C)C (single isomer, unassigned) [Compound 91] |  |  | IC50 ([3]; Hepatitis C virus, read-out: 2B IC50 (nM), replicon 2B): 3.14 nM; IC50 ([2]; Hepatitis C virus, read-out: 1A Y93H IC50 (nM), replicon 1AY93H): 0.28 nM
COC(=O)NC(C(=O)N1CCC[C@H]1c1ncc(-c2ccc3c(c2)cc2n3C(c3cc(C)c(C)s3)Oc3cc(-c4cnc([C@@H]5CCCN5C(=O)[C@@H](NC(=O)OC)C(C)C)[nH]4)cc(F)c3-2)[nH]1)C(C)(C)F (single isomer, unassigned) [Compound 40] | 11.70 | 8.95 | 
CCc1ccc(C2Oc3cc(-c4cnc([C@@H]5CCCN5C(=O)[C@@H](NC(=O)OC)C(C)C)[nH]4)ccc3-c3c(F)c4cc(-c5cnc([C@@H]6CCCN6C(=O)[C@@H](NC(=O)OC)C(C)C)[nH]5)ccc4n32)s1 (single isomer, unassigned) [Compound 601] |  |  | pIC50 ([3]; HCV replicon 2B): 8.91; pIC50 [2, 5]: 8.40
CCc1ccc(C2Oc3cc(-c4cnc([C@@H]5CCCN5C(=O)[C@@H](NC(=O)OC)C(C)C)[nH]4)cc(F)c3-c3cc4cc(-c5cnc([C@@H]6C[C@@H](F)CN6C(=O)C(NC(=O)OC)C6CCOC(C)(C)C6)[nH]5)ccc4n32)s1 (single isomer, unassigned) [Compound 255] |  | 10.08 | pIC50 ([3]; replicon 2B): 8.44
COC(=O)NC(C(=O)N1CCC[C@H]1c1ncc(-c2cc(F)c3c(c2)OC(c2ccc(C4CC4)s2)n2c-3cc3cc(-c4cnc([C@@H]5C[C@H]6C[C@H]6N5C(=O)[C@@H](NC(=O)OC)C(C)C)[nH]4)ccc32)[nH]1)C(C)(C)F (single isomer, unassigned) [Compound 99] |  | 9.28 | pIC50 ([3]; replicon 2B): 8.81
